Assay results as given in patent US11578310B2, “Method for producing CD4/CD8 double-positive T cells” (Kyoto University, priority 2016, dated 2023).

Tested on: hematopoietic progenitor cells induced from iPS cells or ES cells
Assay: Induction of CD4/CD8 double-positive T cells from hematopoietic progenitor cells induced from pluripotent stem cells (flow cytometry)
Type: cell-based, human
Conditions: TKT3v 1-7 line; medium containing SB203580 alone or SDF-1α alone vs neither; FIG. 5
Description: On an ultralow-adhesion-treated 6-well plate (CORNING: #3471). TkT3V1-7. Ffl-01, Ffl-14, or KhES-3 was plated at 3×10^5 to 6×10^5 cells/well (Day 0), and the cells were cultured under hypoxic conditions (5% O2) for five days in EB medium (StemPro34 supplemented with 10 μg/ml human insulin, 5.5 μg/ml human transferrin, 5 ng/ml sodium selenite, 2 mM L-glutamine, […] α-monothioglycerol, and 50 μg/ml ascorbic acid) supplemented with 10 ng/ml BMP4, 5 ng/ml bFGF, 15 ng/ml VEGF, and 2 μM SB431542 (Day 5).
Subsequently, 50 ng/ml SCF, 30 ng/ml TPO, and 10 ng/ml Flt3L were added, and additional culture was performed for 5 to 9 days (up to Day 14).

“4-(4-fluorophenyl)-2-(4-methylsulfonylphenyl)-5-(4-pyridyl)-1H-imidazole [SB203580]” was tested, and the “induction of CD4/CD8 double-positive T cells, each agent used alone” value was “can be produced even when each of these was used alone”.
SDF-1α was tested, and the “induction of CD4/CD8 double-positive T cells, each agent used alone” value was “can be produced even when each of these was used alone”.
